From ChEMBL document CHEMBL1150743, “Anti-inflammatory activity of benzoxazinoids from roots of Coix lachryma-jobi var. ma-yuen” (1988) come the findings set out here.

The assay concerns Mast cell. Nature of the assay: Antiinflammatory activity in Wistar rat peritoneal mast cells assessed as inhibition of concanavalin A-induced histamine release treated 10 mins before concanavalin A challenge measured after 30 mins. It is filed as functional.
For `O=C(O)[C@H]1O[C@@H](Oc2cc3oc(-c4ccccc4)cc(=O)c3c(O)c2O)[C@H](O)[C@@H](O)[C@@H]1O` [BAICALIN], the ID50 amounted to 3 ×10⁻⁶ M.

Turning to `C[C@]12CCC(=O)C=C1CC[C@@H]1[C@@H]2[C@@H](O)C[C@@]2(C)[C@H]1CC[C@]2(O)C(=O)CO` [HYDROCORTISONE], the ID50 was determined as 5 ×10⁻⁵ M.

For `COc1ccc2c(c1)OC(O)C(=O)N2` (racemic), the ID50 came to 6 ×10⁻⁵ M.

For `COc1ccc2c(c1)c(CC(=O)O)c(C)n2C(=O)c1ccc(Cl)cc1` [INDOMETHACIN], the ID50 is recorded as 8 ×10⁻⁴ M.

For `COc1ccc2[nH]c(=O)oc2c1` [COIXOL], the ID50 was 1 ×10⁻³ M.
